Experiments:
Format in all cases: in vivo
radish = experiment: Pre-emergence application, herbicidal effect on radish (Table 1); design: key: 0: not damaged; 5: completely killed; settings: 20 days after application, score 0-5
Summary of the method: (§1)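 Pre-emergence soil application of wettable powders diluted in water over covered seeds (~10 cm pots). Greenhouse growth; visual 0–5 rating (0 none, 5 dead) at 20 days.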

[1] = tested on: barnyard grass (Echinochloa crus-galli); experiment: Pre-emergence application, herbicidal effect on barnyard grass (Table 1); design: key: 0: not damaged; 5: completely killed; settings: 20 days after application, score 0-5
Summary of the method: as §1

[2] = tested on: common purslane (Portulaca oleracea); experiment: Pre-emergence application, herbicidal effect on common purslane (Table 1); design: key: 0: not damaged; 5: completely killed; settings: 20 days after application, score 0-5
Summary of the method: as §1

rice = experiment: Water application, phytotoxicity on rice (Table 2); design: key: 0: no effect; 1: very slightly affected; 2: slightly affected; 3: moderately affected; 4: considerably affected; 5: completely killed; settings: 25 days, score 0-5
Summary of the method: (§2)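 Under water-lodged conditions, wettable-powder test compounds are applied to paddy soil carrying transplanted rice (3-leaf) and sown barnyard grass. Activity on these and on spontaneously emerged broad-leaved weeds is graded 0 to 5 twenty-five days later.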

[3] = tested on: broad-leaved weeds, e.g., monochoria, false pimpernel and toothcup; experiment: Water application, herbicidal effect on broad-leaved weeds (Table 2); design: key: 0: not damaged; 5: completely killed; settings: 25 days, score 0-5
Summary of the method: as §2

[4] = tested on: redroot pigweed (Amaranthus retroflexus); experiment: Pre-emergence application, herbicidal effect on redroot pigweed (Table 1); design: key: 0: not damaged; 5: completely killed; settings: 20 days after application, score 0-5
Summary of the method: as §1

[5] = tested on: barnyard grass (Echinochloa crus-galli); experiment: Water application, herbicidal effect on barnyard grass (Table 2); design: key: 0: not damaged; 5: completely killed; settings: 25 days, score 0-5
Summary of the method: as §2

[6] = tested on: common lambsquarter (Chenopodium album); experiment: Pre-emergence application, herbicidal effect on common lambsquarter (Table 1); design: key: 0: not damaged; 5: completely killed; settings: 20 days after application, score 0-5
Summary of the method: as §1

[7] = tested on: large crabgrass (Digitaria sanguinalis); experiment: Pre-emergence application, herbicidal effect on large crabgrass (Table 1); design: key: 0: not damaged; 5: completely killed; settings: 20 days after application, score 0-5
Summary of the method: as §1

[8] = tested on: tobacco cut worm (Spondoptera litura); experiment: Lethal effect on tobacco cut worm (Table 5); settings: tobacco cutworm, larvae on chinese cabbage leaves, 48 h
Method: The present compounds of an emulsifiable concentrate type were applied to leaves of chinese cabbage in the form of an 1000 fold dilute solution. After air-drying, third to fourth instar larvae of tobacco cut worm were released and after 48 hours the death and alive were observed.

nematode = experiment: Effect on nematode (Table 7); design: tested at 500 ppm; settings: 500 p.p.m., 24 hours
Method: 0.5 ml. of a nematode-containing aqueous solution separated from food according to Baermann's method was placed in a test tube with ground stopper containing 0.5 ml. of an aqueous dilute solution of each emulsifiable concentrates of the present compounds. The concentration of the active ingredient in the mixture was adjusted to 500 p.p.m. After 24 hours, the death and alive were observed microscopically to calculate the mortality.

[9] = tested on: barnyard grass (Echinochloa crus-galli); experiment: Water application, herbicidal effect on barnyard grass (Table 2); design: key: 0: no effect; 1: very slightly affected; 2: slightly affected; 3: moderately affected; 4: considerably affected; 5: completely killed; settings: 25 days, score 0-5
From the text: Wagner pots of 14 cm. in diameter, which had been packed with 1.5 kg. of paddy field soil, were brought into the state of paddy fields. To the pots were transplanted rice seedlings at the 3-leave stage. Further, seeds of barnyard grass (Echinochloa crus-galli) were sowed in the pots and required amounts of test compounds were applied to the soil under water lodged condition. 25 days after application, the degrees of herbicidal activity and phytotoxity were investigated on above-mentioned plants which had been transplanted and sowed, and on broad-leaved weeds, e.g., monochoria (Monochoria viaginalis Presl.), false pimpernel (Linderna pyxidaria) and toothcup (Rotala indica Koehue), which had been spontaneously germinated. The test compounds were used in the form of wettable powder. The herbicidal effects and the phytotoxity were evaluated as follows by the numerals ranging from 0 to 5.

[10] = tested on: broad-leaved weeds, e.g., monochoria, false pimpernel and toothcup; experiment: Water application, herbicidal effect on broad-leaved weeds (Table 2); design: key: 0: no effect; 1: very slightly affected; 2: slightly affected; 3: moderately affected; 4: considerably affected; 5: completely killed; settings: 25 days, score 0-5
Summary of the method: as §2

| Structure (SMILES) | Herbicidal effect, radish (radish; 10 g./a.) | Herbicidal effect, radish (radish; 20 g./a.) | Herbicidal effect, radish (radish; 40 g./a.) | Herbicidal effect, barnyard grass ([1]; 10 g./a.) | Herbicidal effect, barnyard grass ([1]; 20 g./a.) | Herbicidal effect, barnyard grass ([1]; 40 g./a.) | Herbicidal effect, common purslane ([2]; 10 g./a.) | Herbicidal effect, common purslane ([2]; 20 g./a.) | Herbicidal effect, common purslane ([2]; 40 g./a.) | Phytotoxicity on rice (rice; 10 g/a) | Phytotoxicity on rice (rice; 20 g/a) | Phytotoxicity on rice (rice; 40 g/a) | Herbicidal effects, broad-leaved weeds ([3]; 10 g/a) | Herbicidal effects, broad-leaved weeds ([3]; 20 g/a) | Herbicidal effect, redroot pigweed ([4]; 20 g./a.) | Herbicidal effect, redroot pigweed ([4]; 40 g./a.) | Herbicidal effect, common lambsquarter ([6]; 20 g./a.) | Herbicidal effect, common lambsquarter ([6]; 40 g./a.) | Herbicidal effect, large crabgrass ([7]; 20 g./a.) | Herbicidal effect, large crabgrass ([7]; 40 g./a.) | also measured |
| --- | --- | --- | --- | --- | --- | --- | --- | --- | --- | --- | --- | --- | --- | --- | --- | --- | --- | --- | --- | --- | --- |
| CCCSP(=O)(OCC)SCC(=O)N1CCCC(C)C1 (stereo not shown) [Compound 13] | 0 | 0 | 0 | 5 | 5 | 5 | 4 | 5 | 5 | 0 | 0 | 0 | 5 | 5 | 5 | 5 | 5 | 5 | 5 | 5 | Herbicidal effects, broad-leaved weeds ([3]; 40 g/a): 5; Herbicidal effect, redroot pigweed ([4]; 10 g./a.): 4; Herbicidal effects, barnyard grass ([5]; 10 g/a): 5; Herbicidal effects, barnyard grass ([5]; 20 g/a): 5; Herbicidal effects, barnyard grass ([5]; 40 g/a): 5; Herbicidal effect, common lambsquarter ([6]; 10 g./a.): 4; Herbicidal effect, large crabgrass ([7]; 10 g./a.): 5; Mortality [8]: 73.3% |
| CCOP(=O)(SCC(=O)N1CCCCC1C)SCc1ccc(C(C)(C)C)cc1 (stereo not shown) [Compound 50] | 0 | 1 | 2 | 5 | 5 | 5 | 5 | 5 | 5 | 0 | 0 | 1 | 5 | 5 | 5 | 5 | 5 | 5 | 5 | 5 | Mortality (nematode): 100%; Herbicidal effects, broad-leaved weeds ([3]; 40 g/a): 5; Herbicidal effect, redroot pigweed ([4]; 10 g./a.): 5; Herbicidal effects, barnyard grass ([5]; 10 g/a): 5; Herbicidal effects, barnyard grass ([5]; 20 g/a): 5; Herbicidal effects, barnyard grass ([5]; 40 g/a): 5; Herbicidal effect, common lambsquarter ([6]; 10 g./a.): 5; Herbicidal effect, large crabgrass ([7]; 10 g./a.): 5; Mortality [8]: 81.2% |
| CCOP(=O)(SCC(=O)N1CCCCC1CC)SCc1ccc(CC)cc1 (stereo not shown) [Compound 58] | 0 | 0 | 0 | 4 | 5 | 5 | 3 | 4 | 5 | 0 | 0 | 0 | 5 | 5 | 4 | 5 | 4 | 4 | 5 | 5 | Herbicidal effects, broad-leaved weeds ([3]; 40 g/a): 5; Herbicidal effect, redroot pigweed ([4]; 10 g./a.): 3; Herbicidal effects, barnyard grass ([5]; 10 g/a): 5; Herbicidal effects, barnyard grass ([5]; 20 g/a): 5; Herbicidal effects, barnyard grass ([5]; 40 g/a): 5; Herbicidal effect, common lambsquarter ([6]; 10 g./a.): 3; Herbicidal effect, large crabgrass ([7]; 10 g./a.): 5; Mortality [8]: 72.0% |
| CCOP(=O)(SCCCC(C)C)SCC(=O)N1CCCCC1CC (stereo not shown) [Compound 80] | 0 | 0 | 0 | 4 | 5 | 5 | 3 | 4 | 5 | 0 | 0 | 2 | 5 | 5 | 4 | 5 | 4 | 5 | 5 | 5 | Herbicidal effects, barnyard grass ([9]; 10 g/a): 4; Herbicidal effects, broad-leaved weeds ([3]; 40 g/a): 5; Herbicidal effect, redroot pigweed ([4]; 10 g./a.): 3; Herbicidal effects, barnyard grass ([5]; 20 g/a): 5; Herbicidal effects, barnyard grass ([5]; 40 g/a): 5; Herbicidal effect, common lambsquarter ([6]; 10 g./a.): 3; Herbicidal effect, large crabgrass ([7]; 10 g./a.): 5 |
| C=CCSP(=O)(OCCC)SCC(=O)N1CCCCC1CC (stereo not shown) [Compound 91] | 0 | 0 | 0 | 4 | 5 | 5 | 3 | 4 | 4 | 0 | 0 | 0 | 5 | 5 | 3 | 4 | 3 | 4 | 5 | 5 | Herbicidal effects, barnyard grass ([9]; 10 g/a): 4; Herbicidal effects, broad-leaved weeds ([3]; 40 g/a): 5; Herbicidal effect, redroot pigweed ([4]; 10 g./a.): 3; Herbicidal effects, barnyard grass ([5]; 20 g/a): 5; Herbicidal effects, barnyard grass ([5]; 40 g/a): 5; Herbicidal effect, common lambsquarter ([6]; 10 g./a.): 3; Herbicidal effect, large crabgrass ([7]; 10 g./a.): 5 |
| Oc1c(Cl)c(Cl)c(Cl)c(Cl)c1Cl [PCP, reference compound] | – | – | – | – | – | – | – | – | – | – | – | – | – | – | – | – | – | – | – | – | Herbicidal effect, radish (radish; 50 g./a.): 1; Herbicidal effect, radish (radish; 100 g./a.): 4; Herbicidal effects, barnyard grass ([9]; 50 g/a): 4; Herbicidal effect, barnyard grass ([1]; 50 g./a.): 2; Herbicidal effect, barnyard grass ([1]; 100 g./a.): 3; Herbicidal effect, common purslane ([2]; 50 g./a.): 2; Herbicidal effect, common purslane ([2]; 100 g./a.): 4; Phytotoxicity on rice (rice; 50 g/a): 2; Phytotoxicity on rice (rice; 100 g/a): 3; Herbicidal effects, broad-leaved weeds ([3]; 50 g/a): 5; Herbicidal effects, broad-leaved weeds ([3]; 100 g/a): 5; Herbicidal effect, redroot pigweed ([4]; 50 g./a.): 2; Herbicidal effect, redroot pigweed ([4]; 100 g./a.): 4; Herbicidal effects, barnyard grass ([5]; 100 g/a): 5; Herbicidal effect, common lambsquarter ([6]; 50 g./a.): 2; Herbicidal effect, common lambsquarter ([6]; 100 g./a.): 4; Herbicidal effect, large crabgrass ([7]; 50 g./a.): 2; Herbicidal effect, large crabgrass ([7]; 100 g./a.): 4 |
| COP(=S)(NC(C)C)Oc1ccc(Cl)cc1Cl (stereo not shown) [Zytron, reference compound] | – | 0 | 0 | – | 3 | 4 | – | 1 | 2 | – | 0 | 0 | – | – | 0 | 1 | 0 | 2 | 1 | 3 | Herbicidal effects, barnyard grass ([9]; 20 g/a): 1; Herbicidal effects, barnyard grass ([9]; 40 g/a): 3; Herbicidal effects, broad-leaved weeds ([10]; 20 g/a): 2; Herbicidal effects, broad-leaved weeds ([10]; 40 g/a): 3 |

Source: US4015974A, “Amido phosphorothiolates” (priority 1972, dated 1977)
